Active and inactive are the calls of the source. No cut-off for these calls is given here.
Legend:
Candida albicans [1] = assay: Antifungal activity against Candida albicans ATCC 18804 assessed as reduction in fungal growth incubated for 48 hrs by broth microdilution method; assay type: functional
Candida tropicalis [2] = assay: Antifungal activity against Candida tropicalis ATCC 28707 assessed as reduction in fungal growth incubated for 48 hrs by broth microdilution method; assay type: functional
Candida albicans [3] = assay: Antifungal activity against Candida albicans isolate 2 assessed as reduction in fungal growth incubated for 48 hrs by broth microdilution method; assay type: functional
Candida albicans [4] = assay: Antifungal activity against Candida albicans isolate 3 assessed as reduction in fungal growth incubated for 48 hrs by broth microdilution method; assay type: functional
Candida albicans [5] = assay: Antifungal activity against Candida albicans isolate 4 assessed as reduction in fungal growth incubated for 48 hrs by broth microdilution method; assay type: functional
Candida albicans [6] = assay: Antifungal activity against Candida albicans isolate 6 assessed as reduction in fungal growth incubated for 48 hrs by broth microdilution method; assay type: functional
Candida albicans [7] = assay: Antifungal activity against Candida albicans isolate 7 assessed as reduction in fungal growth incubated for 48 hrs by broth microdilution method; assay type: functional
Candida albicans [8] = assay: Antifungal activity against Candida albicans isolate 8 assessed as reduction in fungal growth incubated for 48 hrs by broth microdilution method; assay type: functional
Candida albicans [9] = assay: Antifungal activity against Candida albicans isolate 9 assessed as reduction in fungal growth incubated for 48 hrs by broth microdilution method; assay type: functional
Candida albicans [10] = assay: Antifungal activity against Candida albicans isolate 10 assessed as reduction in fungal growth incubated for 48 hrs by broth microdilution method; assay type: functional
Candida tropicalis [11] = assay: Fungicidal activity against Candida tropicalis ATCC 28707 assessed as fungal killing incubated for 48 hrs followed by plating on SD agar plate; assay type: functional; settings: read-out: MFC99.9
Candida albicans [12] = assay: Fungicidal activity against Candida albicans isolate 2 assessed as fungal killing incubated for 48 hrs followed by plating on SD agar plate; assay type: functional; settings: read-out: MFC99.9
Candida albicans [13] = assay: Fungicidal activity against Candida albicans isolate 3 assessed as fungal killing incubated for 48 hrs followed by plating on SD agar plate; assay type: functional; settings: read-out: MFC99.9
Candida albicans [14] = assay: Fungicidal activity against Candida albicans isolate 13 assessed as fungal killing incubated for 48 hrs followed by plating on SD agar plate; assay type: functional; settings: read-out: MFC99.9
Candida albicans [15] = assay: Fungicidal activity against Candida albicans ATCC 10231 assessed as reduction in fungal load at 7.8 to 15.6 ug/ml incubated for 8 hrs followed by inoculation on SD agar plate for 48 hrs by time-kill assay; assay type: functional, organism-based; settings: dose 7.8-15.6 µg/ml, time 56.0 hrs
Candida albicans [16] = assay: Disruption of cell membrane in Candida albicans ATCC 10231 assessed as increase in intracellular leakage at MIC incubated for 24 hrs by UV spectrophotometric analysis; assay type: cell-based
Pichia kudriavzevii = assay: Disruption of cell membrane in Candida krusei ATCC 34135 assessed as increase in intracellular leakage at MIC incubated for 24 hrs by UV spectrophotometric analysis; assay type: cell-based
Nakaseomyces glabratus [17] = assay: Antifungal activity against Candida glabrata ATCC 2001 assessed as reduction in fungal growth incubated for 48 hrs in presence of ergosterol by broth microdilution method; assay type: functional
Nakaseomyces glabratus [18] = assay: Antifungal activity against Candida glabrata ATCC 2001 assessed as reduction in fungal growth incubated for 48 hrs in presence of sorbitol by broth microdilution method; assay type: functional
Candida tropicalis [19] = assay: Antifungal activity against Candida tropicalis ATCC 28707 assessed as reduction in fungal growth incubated for 48 hrs in presence of ergosterol by broth microdilution method; assay type: functional
Candida albicans [20] = assay: Antifungal activity against Candida albicans ATCC 10231 assessed as inhibition of yeast to hypha morphological transition at 15.6 ug/ml measured upto 72 hrs by microscopic analysis; assay type: functional, organism-based; settings: dose 15.6 µg/ml, time hrs <=72
[21] = Toxicity in Swiss mouse assessed as body weight at 3 mg/kg, ip measured after 24 hrs (reference value: 36.25 +/- 0.31 g); assay type: organism-based; settings: in vivo
[22] = Toxicity in Swiss mouse assessed as body weight at 10 mg/kg, ip measured after 24 hrs (reference value: 36.25 +/- 0.31 g); assay type: organism-based; settings: in vivo
[23] = Toxicity in Swiss mouse assessed as body weight at 20 mg/kg, ip measured after 24 hrs (reference value: 36.25 +/- 0.31 g); assay type: organism-based; settings: in vivo
[24] = Toxicity in Swiss mouse assessed as relative kidney weight at 10 mg/kg, ip measured after 24 hrs (reference value: 14.91 +/- 0.99 g); assay type: organism-based; settings: in vivo
[25] = Toxicity in Swiss mouse assessed as relative spleen weight at 1 mg/kg, ip measured after 24 hrs (reference value: 4.02 +/- 0.59 g); assay type: organism-based; settings: in vivo
[26] = Toxicity in Swiss mouse assessed as relative spleen weight at 3 mg/kg, ip measured after 24 hrs (reference value: 4.02 +/- 0.59 g); assay type: organism-based; settings: in vivo
[27] = Toxicity in Swiss mouse assessed as relative heart weight at 0.5 mg/kg, ip measured after 24 hrs (reference value: 4.75 +/- 0.60 g); assay type: organism-based; settings: in vivo
[28] = Toxicity in Swiss mouse assessed as relative heart weight at 20 mg/kg, ip measured after 24 hrs (reference value: 4.75 +/- 0.60 g); assay type: organism-based; settings: in vivo
[29] = Toxicity in Swiss mouse assessed as relative liver weight at 20 mg/kg, ip measured after 24 hrs (reference value: 49.42 +/- 7.17 g); assay type: organism-based; settings: in vivo
[30] = Toxicity in Swiss mouse assessed as death of organism at 0.5 to 20 mg/kg, ip measured for 24 hrs; assay type: organism-based; settings: in vivo, dose 0.5-20 mg/kg
Candida albicans [31] = assay: In vivo antifungal activity in Swiss mouse infected with Candida albicans ATCC 10231 assessed as reduction in fungal load in kidney at 0.5 mg/kg, ip administered at 2, 24 and 48 hrs post-infection and measured per gm of organ at 24 hrs post-last dose (reference value: 2.47); assay type: functional; settings: time 72 hrs
Candida albicans [32] = assay: In vivo antifungal activity in Swiss mouse infected with Candida albicans ATCC 10231 assessed as reduction in fungal load in kidney at 1 mg/kg, ip administered at 2, 24 and 48 hrs post-infection and measured per gm of organ at 24 hrs post-last dose (reference value: 2.47); assay type: functional; settings: time 72 hrs
[33] = Toxicity in Swiss mouse infected with Candida albicans ATCC 10231 assessed as effect on kidney weight at 10 mg/kg, ip administered at 2, 24 and 48 hrs post-infection and measured at 24 hrs after last dose; assay type: organism-based; settings: in vivo, 72 h
[34] = Toxicity in Swiss mouse infected with Candida albicans ATCC 10231 assessed as effect on lung weight at 10 mg/kg, ip administered at 2, 24 and 48 hrs post-infection and measured at 24 hrs after last dose; assay type: organism-based; settings: in vivo, 72 h
[35] = Toxicity in Swiss mouse infected with Candida albicans ATCC 10231 assessed as effect on liver at 10 mg/kg, ip administered at 2, 24 and 48 hrs post-infection and measured at 24 hrs after last dose by macroscopic analysis; assay type: organism-based; settings: in vivo, 72 h
[36] = Toxicity in Swiss mouse infected with Candida albicans ATCC 10231 assessed as effect on spleen at 10 mg/kg, ip administered at 2, 24 and 48 hrs post-infection and measured at 24 hrs after last dose by macroscopic analysis; assay type: organism-based; settings: in vivo, 72 h
[37] = Toxicity in Swiss mouse infected with Candida albicans ATCC 10231 assessed as effect on lung at 10 mg/kg, ip administered at 2, 24 and 48 hrs post-infection and measured at 24 hrs after last dose by macroscopic analysis; assay type: organism-based; settings: in vivo, 72 h

## [Cl-].[N-]=[N+]=NCCCCCCCCCCCCOCCCc1ccc[n+](Cc2ccccc2)c1
Candida albicans [1]
  MIC: 7.8 µg/mL
Candida tropicalis [2]
  MIC: 7.8 µg/mL
Candida albicans [3]
  MIC: 7.8 µg/mL
Candida albicans [4]
  MIC: 7.8 µg/mL
Candida albicans [5]
  MIC: 1.95 µg/mL
Candida albicans [6]
  MIC: 15.6 µg/mL
Candida albicans [7]
  MIC: 1.95 µg/mL
Candida albicans [8]
  MIC: 3.9 µg/mL
Candida albicans [9]
  MIC: 15.6 µg/mL
Candida albicans [10]
  MIC: 15.6 µg/mL
Candida tropicalis [11]
  MFC: 15.6 µg/mL
Candida albicans [12]
  MFC: 7.8 µg/mL
Candida albicans [13]
  MFC: 7.8 µg/mL
Candida albicans [14]
  MFC: 7.8 µg/mL
Candida albicans [15]
  Activity: Active
Candida albicans [16]
  Activity: Active
Pichia kudriavzevii
  Activity: Active
Nakaseomyces glabratus [17]
  MIC: 7.8 µg/mL
Nakaseomyces glabratus [18]
  MIC: 7.8 µg/mL
Candida tropicalis [19]
  MIC: 15.6 µg/mL
Candida albicans [20]
  Activity: Active
[21]
  Activity: 38.87 g
[22]
  Activity: 31.37 g
[23]
  Activity: 32.5 g
[24]
  Activity: 15.52 g
[25]
  Activity: 4.29 g
[26]
  Activity: 4.07 g
[27]
  Activity: 5.75 g
[28]
  Activity: 4.93 g
[29]
  Activity: 45 g
[30]
  Activity: Non-Toxic
Candida albicans [31]
  Activity: 0 log10CFU
Candida albicans [32]
  Activity: 0 log10CFU
[33]
  Activity: Non-Toxic
[34]
  Activity: Non-Toxic
[35]
  Activity: Non-Toxic
[36]
  Activity: Non-Toxic
[37]
  Activity: Non-Toxic

From ChEMBL document CHEMBL4732126, “Design, synthesis, and biodistribution studies of new analogues of marine alkaloids: Potent in vitro and in vivo fungicidal agents against Candida spp” (Eur J Med Chem, 2021)
